# According to patent US20100069504A1, “AMINOBENZOCYCLOHEPTENE DERIVATIVES, METHODS FOR PREPARING THE SAME AND USES THEREOF IN THERAPY” (UNIVERSITE DE HAUTE ALSACE, priority 2006, published 2010):
# Counter-ions that a name gives are not always drawn. Like-named read-outs stand apart in the source and are kept apart here.
# Tests used:
# [1] = target: T1, AP-N (EC3.4.11.2) (Sus scrofa, UniProt P15145); assay: AP-N inhibitory activity, inhibition constant Ki by spectrophotometry (Dixon method); assay type: biochemical, porcine; conditions: L-leucine para-nitroanilide substrate, 30° C., pH=7.5; hydrochloride, racemic mixture
# T1 construct: The AP-N is purified in a soluble form according to the method described by Wacker; purchased Sigma Chemical Corporation; host or cells: porcine livers (tissue)
# T1 sequence (P15145 33-963 limits assumed): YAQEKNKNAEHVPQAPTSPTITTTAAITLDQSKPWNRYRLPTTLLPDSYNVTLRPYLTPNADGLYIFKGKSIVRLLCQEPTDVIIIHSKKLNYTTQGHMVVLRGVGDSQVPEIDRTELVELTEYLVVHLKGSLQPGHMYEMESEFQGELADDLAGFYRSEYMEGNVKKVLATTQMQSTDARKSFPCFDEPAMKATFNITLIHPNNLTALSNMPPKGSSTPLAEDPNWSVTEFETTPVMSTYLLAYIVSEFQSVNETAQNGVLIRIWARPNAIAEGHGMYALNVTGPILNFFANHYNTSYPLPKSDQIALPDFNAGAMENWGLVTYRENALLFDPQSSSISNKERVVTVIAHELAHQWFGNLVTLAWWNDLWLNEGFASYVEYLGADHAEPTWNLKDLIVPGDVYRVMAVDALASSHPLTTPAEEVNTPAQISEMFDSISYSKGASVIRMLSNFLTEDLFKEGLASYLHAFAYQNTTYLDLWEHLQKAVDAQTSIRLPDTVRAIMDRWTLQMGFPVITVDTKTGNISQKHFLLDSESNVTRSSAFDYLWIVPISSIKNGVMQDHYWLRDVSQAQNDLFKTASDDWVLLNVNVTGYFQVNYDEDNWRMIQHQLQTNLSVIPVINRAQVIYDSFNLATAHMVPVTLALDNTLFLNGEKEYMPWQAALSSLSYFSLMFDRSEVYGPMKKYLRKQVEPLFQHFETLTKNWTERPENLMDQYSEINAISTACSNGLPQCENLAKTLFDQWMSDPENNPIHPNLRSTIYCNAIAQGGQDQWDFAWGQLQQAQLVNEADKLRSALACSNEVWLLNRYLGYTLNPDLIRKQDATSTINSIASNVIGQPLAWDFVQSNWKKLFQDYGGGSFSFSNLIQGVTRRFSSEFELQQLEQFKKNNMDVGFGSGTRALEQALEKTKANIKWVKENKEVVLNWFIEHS
# Excerpt: (§1) LTA4H has an aminopeptidase type activity similar to AP-N and a very close substrate specificity. It is important for the AP-N inhibitory molecules neither to inhibit LTA4H nor aminopeptidases that contain a co-catalytic unit like LAPc.
# (§2) The LAPc enzymes from bovine livers and AP-N from porcine livers are marketed by Sigma Chemical Corporation. The AP-N is purified in a soluble form according to the method described by Wacker, H., Lecky, P., Fischer E. H., Stein, E. A. Hely. Chim.
# (§3) The kinetic studies are carried out at 30° C. and the reactions are started up by adding the enzymes in 1 mL of test medium: LAPc, 5 units in 10 mM Tris-HCl, 0.1 mM ZnCl2, 5 mM MnCl2, 1 M KCl, pH=8.0; AP-N, 25 mUnits in 10 mM Tris-HCl, pH=7.5 and LTA4H, 5 μg in 10 mM Tris-HCl, 0.1 mM KCl, pH=7.5.
# (§4) All the inhibitory molecules are assessed as an hydrochloride and in racemic mixture.
# [2] = target: T2, human recombinant leukotriene A4 hydrolase (LTA4H) (EC3.3.2.6) (Homo sapiens, UniProt P09960); assay: LTA4H aminopeptidase inhibition, Ki by spectrophotometry (Dixon method); assay type: biochemical; conditions: alanine para-nitroanilide substrate, 30° C., pH=7.5; hydrochloride, racemic mixture
# T2 sequence (P09960 1-611): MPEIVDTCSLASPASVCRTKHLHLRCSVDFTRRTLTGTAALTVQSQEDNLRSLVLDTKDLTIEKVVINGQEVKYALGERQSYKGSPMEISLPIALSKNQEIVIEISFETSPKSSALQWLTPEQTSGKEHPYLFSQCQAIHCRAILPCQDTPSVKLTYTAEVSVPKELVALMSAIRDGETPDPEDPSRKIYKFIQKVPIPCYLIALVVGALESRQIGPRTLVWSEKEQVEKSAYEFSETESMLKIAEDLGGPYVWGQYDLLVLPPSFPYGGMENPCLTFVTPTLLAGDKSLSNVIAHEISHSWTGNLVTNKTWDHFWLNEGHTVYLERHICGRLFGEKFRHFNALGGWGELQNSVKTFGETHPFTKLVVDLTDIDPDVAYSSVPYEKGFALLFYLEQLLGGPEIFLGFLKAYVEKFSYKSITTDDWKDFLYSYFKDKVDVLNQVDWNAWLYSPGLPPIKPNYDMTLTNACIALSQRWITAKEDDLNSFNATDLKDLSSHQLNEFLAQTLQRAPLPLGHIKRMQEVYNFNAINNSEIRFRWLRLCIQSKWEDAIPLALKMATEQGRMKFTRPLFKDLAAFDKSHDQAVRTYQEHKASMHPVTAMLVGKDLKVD
# Description: as §1, §3, §4
# [3] = target: T3, cytosolic leucine aminopeptidase (LAPc) (EC3.4.11.1) (Bos taurus, UniProt P00727); assay: LAPc inhibition, Ki by spectrophotometry (Dixon method); assay type: biochemical, bovine
# T3 construct: The LAPc enzymes from bovine livers; purchased Sigma Chemical Corporation; host or cells: bovine livers (tissue)
# T3 sequence (P00727 1-519): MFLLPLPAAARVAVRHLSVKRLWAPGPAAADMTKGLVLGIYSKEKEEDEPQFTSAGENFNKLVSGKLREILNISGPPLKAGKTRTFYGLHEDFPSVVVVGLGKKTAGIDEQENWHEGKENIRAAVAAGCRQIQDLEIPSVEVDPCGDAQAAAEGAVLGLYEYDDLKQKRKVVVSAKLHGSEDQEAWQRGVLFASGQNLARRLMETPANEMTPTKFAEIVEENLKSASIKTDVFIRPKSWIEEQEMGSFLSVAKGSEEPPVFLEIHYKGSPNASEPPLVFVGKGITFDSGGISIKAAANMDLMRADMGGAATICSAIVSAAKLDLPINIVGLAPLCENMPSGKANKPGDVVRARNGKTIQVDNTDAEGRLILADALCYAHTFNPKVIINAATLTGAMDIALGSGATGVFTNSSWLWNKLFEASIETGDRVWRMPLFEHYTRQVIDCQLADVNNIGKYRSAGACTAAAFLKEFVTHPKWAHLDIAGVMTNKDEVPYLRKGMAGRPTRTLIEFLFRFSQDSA
# Excerpt: as §1, §2, §3, §4
# [4] = target: T4, AP-N from porcine livers (Sus scrofa, UniProt P15145); assay: Stability in aqueous solution, followed by AP-N inhibition over at least 10 hours; assay type: biochemical; conditions: read-out: inhibition of AP-N throughout the test
# T4 construct: The AP-N is purified in a soluble form according to the method described by Wacker; purchased Sigma Chemical Corporation; host or cells: porcine livers (tissue)
# T4 sequence (P15145 33-963 limits assumed): T1 sequence (P15145 33-963 limits assumed)
# Description: The enzymatic tests are carried out at 25° C. in 20 mM Tris-HCl, pH=7.5 with 0.2 mM L-leucine para-nitroanilide as a substrate, in a total reaction volume of 1 mL. […] The reaction is started up by adding 3 milliunits of AP-N from porcine livers.
# Under these experimental conditions, the linear kinetics is monitored for at least 10 hours.
# [5] = L-leucine para-nitroanilide substrate, 30° C., pH=8.0, hydrochloride, racemic mixture, read-out: Ki (M) LAPc (EC3.4.11.1)
Structure (SMILES),melting point,Ki [1],Ki [2],"Ki [3, 5]",inhibition at 200 µM [4],Ki [3]
Cl.NC1CCc2ccccc2CC1=NO (stereo not drawn),270 to 280 °C,–,–,–,–,–
"Cl.NC1CCc2ccccc2CC1=O (racemic) [EX 2, 7-amino-5,7,8,9-tetrahydro-benzocyclohepten-6-one hydrochloride]",–,1000 nM,> 1 mM,> 0.001 M,50%,–
"NC1CCc2ccccc2C(F)C1=O (racemic) [EX 3, 7-amino-5-fluoro-5,7,8,9-tetrahydro-benzocyclohepten-6-one hydrochloride]",–,300 nM,> 1 mM,> 0.001 M,–,–
"Cl.NC1CCc2ccccc2C(CCCc2ccccc2)C1=O (racemic) [EX 6, 5-phenylpropyl-7-amino-5,7,8,9-tetrahydro-benzocyclohepten-6-one hydrochloride]",156 to 158 °C,12000 nM,> 1 mM,> 0.001 M,–,–
"NC1Cc2ccccc2CC1=O (racemic) [EX 10, 2-amino-3-tetralone, reference compound]",–,–,> 1 mM,–,–,0.00012 M

# The next lines start with results.
melting point,Ki [1],Ki [2],"Ki [3, 5]",Structure (SMILES),inhibition at 200 µM [4],Ki [3]
–,–,> 1 mM,2e-05 M,"NC1CCc2cccc(-c3ccccc3)c2CC1=O (racemic) [EX 7, 7-amino-4-phenyl-5,7,8,9-tetrahydro-benzocyclohepten-6-one hydrochloride]",–,–
–,80 nM,> 1 mM,> 0.001 M,"NC1CCc2ccccc2C(SCc2ccccc2)C1=O (racemic) [EX 8, 5-benzylsulphanyl-7-amino-5,7,8,9-tetrahydro-benzocyclohepten-6-one hydrochloride]",–,–
–,–,> 1 mM,> 0.001 M,"NC1CCc2c(Br)cccc2CC1=O (racemic) [EX 9, 7-amino-1-bromo-5,7,8,9-tetrahydro-benzocyclohepten-6-one hydrochloride]",–,–
